Test results taken from US5843959A, “Methods and bicyclic polyamine compositions for the treatment of inflammation” (University of Florida Research Foundation, Inc., priority 1997, dated 1998).
Where “and” joins values, the source holds several entries; their conditions need not be identical. Equal values may be shown once. Entries after “also recorded” stand apart in the source; their conditions may differ.

How the values were obtained:
[1] = tested on: adjuvant-induced arthritis; test: Adjuvant-induced arthritis model in Lewis rats (Table 7); details: p.o. 5 days, DiPIPs 100 mg/kg, Voltaren and indomethacin 6 mg/kg
Procedure: Four groups consisting of 6 male Lewis rats weighing 150-200 g were injected subcutaneously at the base of the tail with 0.1 ml of CFA. Drugs to be assayed were administered 5 days beginning on the day of the adjuvant injection. The paw volume of the right and left rear paw of each rat were measured on the day of adjuvant injection and at regular intervals for 30 days thereafter.
The emulsion was injected subcutaneously at the base of the tail and induced the arthritic state. Measurements of paw volume were made for 30 days to monitor paw swelling. Drug treatment began on Day 0.
Four groups consisting of 10 male Lewis rats weighing 150-200 g were injected subcutaneously at the base of the tail with 0.1 ml of CFA. Drugs to be assayed were administered for 5 days beginning on the day of the adjuvant injection.

[2] = tested on: BALB/c splenocytes stimulated with Con A; test: Mitogen response to Con A (T cell proliferation); type: cell-based, mouse (BALB/c)
Procedure: (§1) This study examined the potential immunomodulatory activities of PIP[4,4,4] on mouse spleen cells using in vitro techniques. The effect of the compound on the ability of murine splenocytes to respond to the […] mitogen concanavalin A (Con A) and the B cell mitogen lipopolysaccharide (LPS) was studied. […] In addition, the compound was tested for its effect on the mixed lymphocyte response (MLR). The MLR is an in vitro manifestation of cell-mediated immunity in which T cells respond to differences in major histocompatibility complex (MHC) class II molecules (Ia antigens) expressed on foreign or allogeneic leukocytes (primarily B cells and […]/monocytes).
(§2) a. Preparation of cells--Under sterile conditions, spleens were removed from BALB/c (H-2^d) and CBA/J (H-2^k) mice. BALB/c splenocytes were used as responder cells in the mitogen assays and the MLR assays, whereas CBA/J cells were used as stimulator cells in the MLR assays. […] Cells were exposed to various concentrations of the test compounds for the entire culture period. The initial dilutions in medium were filter sterilized to maintain aseptic conditions.
(§3) b. Mitogen assays--Con A and LPS were obtained from Sigma Chemical Co. (St. Louis, Mo., U.S.A.). 2×10^5 BALB/c splenocytes were added per well. […] Triplicate wells were set up in 96-well flat-bottom microtiter plates for all treated cultures and positive controls (100% of control) were performed in replicates of nine wells. Plates were incubated at 37° C. in a humidified CO2 incubator for 3 days, pulsed with 1 μCi ^3 H-TdR/well for 6-16 hours, harvested and counted in a liquid scintillation counter. All data were processed using Lotus 1-2-3 and SigmaPlot software.

[3] = tested on: carrageenan-induced edema in rat paw; test: Inhibition of carrageenan-induced paw edema in rats
[4] = tested on: BALB/c splenocytes stimulated with LPS; test: Mitogen response to LPS (B cell proliferation); type: cell-based, mouse (BALB/c)
Procedure: as §1, §2, §3

[5] = tested on: type II collagen-induced arthritis; test: Prevention of type II collagen-induced arthritis in mice; type: in vivo, mouse (DBA/1J)
Procedure: The purpose of this study was to test PIP[4,4,4] in an experimental model of arthritis in DBA/1J mice by observing the onset, duration and remission of inflammation utilizing type II collagen. Twenty male DBA/1J mice, equally divided into two groups of ten animals, were immunized with a single intradermal injection of native type II chick collagen (100 μg/animal, intradermally) in Complete Freund's Adjuvant (CFA) on Day 0. […] On Day 21, both groups received a challenge dose of type II collagen (100 μg/animal, intradermally at the base of the tail, in 50 μl CFA). Daily joint measurements were recorded once per day on Days 20-40. Joints were measured using a constant tension caliper (Mitutoyo Digimatic Thickness Gauge). All mice were measured before the start of the study (Day -1) to obtain baseline readings at three joints on the right and left hindlimb (paw thickness, ankle width and knee width) and two joints of the right and left forelimb (paw thickness and elbow width). […] Four of ten mice treated with PIP[4,4,4] died or were sacrificed in extremis, during the treatment period.

[6] = tested on: adjuvant-induced arthritis
[7] = Solubility in the vehicle; type: physicochemical; details: distilled water
Procedure: PIP[4,4,4] was obtained as described above. Distilled water was used as the vehicle for in vivo testing. […] Commercially obtained chemicals used were indomethacin and hydrocortisone (Sigma, St. Louis, Mo., U.S.A.), aspirin (Miles Labs., Elkart, IN, U.S.A.), carrageenan (Tokyo Kasei Industry Co., Ltd.), Mycobacterium tuberculosis (Difco Labs., Detroit, Mich., U.S.A.) and carboxymethyl-cellulose (Wako Pure Chemical Industries, Osaka, Japan). Doses of all compounds used were calculated on the basis of the weight of the salt.

[8] = 100 mg/kg p.o. daily for 5 consecutive days
[9] = Day 19, individual rat, p.o. × 5: PIP[4,4,4] 100, hydrocortisone 30, indomethacin 5 mg/kg

C(CCNCC1CCNCC1)CNCC1CCNCC1 [PIP[4,4,4], N,N'-Bis(4-piperidinylmethyl)-1,4-butanediamine]
% FINAL INHIBITION ([1]; Day 28-0): 58%
FINAL DAY 28-0 (paw volume) [1]: .801
INITIAL DAY 14-0 (paw volume) [1]: .496
Effect on Con A response (in words) [2]: no inhibitory effect on the Con A response
Proliferative response (CPM), Mean ± SD ([2]; Con A 3 μg/ml, drug 0.010 μm): 343389 ± 21927 CPM
Proliferative response (CPM), Mean ± SD ([2]; Con A 3 μg/ml, drug 0.100 μm): 333419 ± 31211 CPM
Proliferative response (CPM), Mean ± SD ([2]; Con A 3 μg/ml, drug 1.000 μm): 340397 ± 25586 CPM
Proliferative response (CPM), Mean ± SD ([2]; Con A 3 μg/ml, drug 10.000 μm): 365771 ± 2876 CPM
Proliferative response (CPM), Mean ± SD ([2]; Con A 3 μg/ml, drug 100.000 μm): 313504 ± 279 CPM
Proliferative response (CPM), Mean ± SD ([2]; Con A 3 μg/ml, drug 1000.000 μm): 273418 ± 14954 CPM
activity at 0.01 µM ([2]; Mus musculus, Splenocyte, 72 h, Con A 3 μg/ml, drug 0.010 μm, read-out: % Control): 173%
activity at 0.1 µM ([2]; Mus musculus, Splenocyte, 72 h, Con A 3 μg/ml, drug 0.100 μm, read-out: % Control): 168%
activity at 1 µM ([2]; Mus musculus, Splenocyte, 72 h, Con A 3 μg/ml, drug 1.000 μm, read-out: % Control): 172%
activity at 10 µM ([2]; Mus musculus, Splenocyte, 72 h, Con A 3 μg/ml, drug 10.000 μm, read-out: % Control): 185%
activity at 100 µM ([2]; Mus musculus, Splenocyte, 72 h, Con A 3 μg/ml, drug 100.000 μm, read-out: % Control): 158%
activity at 1000 µM ([2]; Mus musculus, Splenocyte, 72 h, Con A 3 μg/ml, drug 1000.000 μm, read-out: % Control): 138%
Acute anti-inflammatory activity (in words) ([3]; 30 mg/kg intraperitoneally): significantly reducing the extent of carrageenan-induced paw edema
% Edema inhibition ([3]; vs vehicle control, aspirin 150 mg/kg p.o., hydrocortisone 25 mg/kg p.o., PIP[4,4,4] 30 mg/kg i.p., >30% significant): 58%
Proliferative response (CPM), Mean ± SD ([4]; LPS 25 μg/ml, drug 0.010 μm): 175516 ± 10793 CPM
Proliferative response (CPM), Mean ± SD ([4]; LPS 25 μg/ml, drug 0.100 μm): 174197 ± 23886 CPM
Proliferative response (CPM), Mean ± SD ([4]; LPS 25 μg/ml, drug 1.000 μm): 192921 ± 32628 CPM
Proliferative response (CPM), Mean ± SD ([4]; LPS 25 μg/ml, drug 10.000 μm): 187500 ± 8089 CPM
Proliferative response (CPM), Mean ± SD ([4]; LPS 25 μg/ml, drug 100.000 μm): 117804 ± 14014 CPM
Proliferative response (CPM), Mean ± SD ([4]; LPS 25 μg/ml, drug 1000.000 μm): 83427 ± 18281 CPM
activity at 0.01 µM ([4]; Mus musculus, Splenocyte, 72 h, LPS 25 μg/ml, drug 0.010 μm, read-out: % Control): 100%
activity at 0.1 µM ([4]; Mus musculus, Splenocyte, 72 h, LPS 25 μg/ml, drug 0.100 μm, read-out: % Control): 99%
activity at 1 µM ([4]; Mus musculus, Splenocyte, 72 h, LPS 25 μg/ml, drug 1.000 μm, read-out: % Control): 110%
activity at 10 µM ([4]; Mus musculus, Splenocyte, 72 h, LPS 25 μg/ml, drug 10.000 μm, read-out: % Control): 106%
activity at 100 µM ([4]; Mus musculus, Splenocyte, 72 h, LPS 25 μg/ml, drug 100.000 μm, read-out: % Control): 67%
activity at 1000 µM ([4]; Mus musculus, Splenocyte, 72 h, LPS 25 μg/ml, drug 1000.000 μm, read-out: % Control): 47%
Effect on LPS response (in words) ([4]; suppression in the 1-100 μm range): some inhibition of the LPS response; also recorded: some dose-dependent suppression
Toxicity of compound administration (in words) ([5]; 75 mg/kg i.p. daily, dosage decreased to 50 mg/kg on Day 26): overt toxicity
Day on which decrease in joint measurements first evident ([5]; i.p. daily from Day 20, 75 mg/kg): ≤ 25 days
Mice died or sacrificed in extremis ([5]; i.p. daily from Day 20, 75 then 50 mg/kg, during treatment period): Four of ten
Joint measurements / degree of inflammation (in words) ([5]; i.p. daily from Day 20, 75 then 50 mg/kg, vs saline control): Joint measurements decreased; also recorded: significantly less than that in mice treated with equal volumes of saline (control)
Acute and late phase swelling (in words) [6, 8]: reduced both part of the acute phase and inhibited the development of the late phase swelling in the contralateral paw
Signs of polyarthritis in the paws (in words) [6, 8]: did not prevent the appearance of signs of polyarthritis in the paws
Inhibition % B (5-0) ([6]; 5th day after 5 doses, p.o.: PIP[4,4,4] 100, hydrocortisone 30, indomethacin 5 mg/kg, >30% significant): 26%
Net swelling of paw volume A (1-0), average ([6]; Day 1 - Day 0, average, p.o. × 5: PIP[4,4,4] 100, hydrocortisone 30, indomethacin 5 mg/kg): 0.74 mL
Net swelling of paw volume B (5-0), average ([6]; Day 5 - Day 0, average, p.o. × 5: PIP[4,4,4] 100, hydrocortisone 30, indomethacin 5 mg/kg): 1.22 mL
Net swelling of paw volume B (5-0) ([6]; Day 5 - Day 0, individual rat, p.o. × 5: PIP[4,4,4] 100, hydrocortisone 30, indomethacin 5 mg/kg): 1.17 mL and 1.49 mL and 1.04 mL and 1.37 mL and 1.03 mL
Net swelling of paw volume C (5-1), average ([6]; Day 5 - Day 1, average, p.o. × 5: PIP[4,4,4] 100, hydrocortisone 30, indomethacin 5 mg/kg): 0.48 mL
Net swelling of paw volume C (5-1) ([6]; Day 5 - Day 1, individual rat, p.o. × 5: PIP[4,4,4] 100, hydrocortisone 30, indomethacin 5 mg/kg): 0.34 mL and 0.70 mL and 0.50 mL and 0.52 mL
Polyarthritis E (ears) [6, 9]: -
Polyarthritis N (noses) [6, 9]: -
Polyarthritis P (paws) [6, 9]: +
Polyarthritis T (tails) [6, 9]: -
B.W. Gain (18-0), average ([6]; average, p.o. × 5: PIP[4,4,4] 100, hydrocortisone 30, indomethacin 5 mg/kg): 25 g
Inhibition % A (1-0) ([6]; first day, after one dose, p.o.: PIP[4,4,4] 100, hydrocortisone 30, indomethacin 5 mg/kg, >30% significant): 11%
B.W. Gain (18-0) ([6]; individual rat, p.o. × 5: PIP[4,4,4] 100, hydrocortisone 30, indomethacin 5 mg/kg): 20 g and 35 g and 5 g and 30 g
Inhibition % C (5-1) ([6]; paw volume change Day 1 to Day 5, p.o. × 5: PIP[4,4,4] 100, hydrocortisone 30, indomethacin 5 mg/kg, >30% significant): 41%
Net swelling of paw volume D (14-0), average ([6]; untreated paw, Day 14 - Day 0, average, p.o. × 5: PIP[4,4,4] 100, hydrocortisone 30, indomethacin 5 mg/kg): 0.29 mL
Net swelling of paw volume D (14-0) ([6]; untreated paw, Day 14 - Day 0, individual rat, p.o. × 5: PIP[4,4,4] 100, hydrocortisone 30, indomethacin 5 mg/kg): 0.25 mL and 0.43 mL and 0.23 mL and 0.34 mL and 0.20 mL
Inhibition % D (14-0) ([6]; untreated paw, Day 14 relative to Day 0, p.o. × 5: PIP[4,4,4] 100, hydrocortisone 30, indomethacin 5 mg/kg, >30% significant): 36%
Inhibition % F (18-14) ([6]; untreated paw, Day 14 to Day 18, p.o. × 5: PIP[4,4,4] 100, hydrocortisone 30, indomethacin 5 mg/kg, >30% significant): 47%
Net swelling of paw volume E (18-0), average ([6]; untreated paw, Day 18 - Day 0, average, p.o. × 5: PIP[4,4,4] 100, hydrocortisone 30, indomethacin 5 mg/kg): 0.45 mL
Net swelling of paw volume E (18-0) ([6]; untreated paw, Day 18 - Day 0, individual rat, p.o. × 5: PIP[4,4,4] 100, hydrocortisone 30, indomethacin 5 mg/kg): 0.35 mL and 0.55 mL and 0.37 mL and 0.45 mL and 0.53 mL
Net swelling of paw volume F (18-14), average ([6]; untreated paw, Day 18 - Day 14, average, p.o. × 5: PIP[4,4,4] 100, hydrocortisone 30, indomethacin 5 mg/kg): 0.16 mL
Net swelling of paw volume F (18-14) ([6]; untreated paw, Day 18 - Day 14, individual rat, p.o. × 5: PIP[4,4,4] 100, hydrocortisone 30, indomethacin 5 mg/kg): 0.10 mL and 0.12 mL and 0.14 mL and 0.11 mL and 0.33 mL
Inhibition % E (18-0) ([6]; untreated paw, Day 18 relative to Day 0, p.o. × 5: PIP[4,4,4] 100, hydrocortisone 30, indomethacin 5 mg/kg, >30% significant): 40%
Weight gain reductions (in words) ([6]; vs vehicle-treated animals, 18 day study): did not affect weight gain reductions
Solubility in the vehicle [7]: completely soluble
